The compounds below were run against PKM2 (Homo sapiens, UniProt P14618) (assay: PKM2 Assay (activation, LDH-coupled, absorbance at 340 nm)). Conditions: Table 5.
Format: biochemical
Outline: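 Human PKM2 (50 ng/well) was preincubated with compound and coupling mix for 30 min at 4 °C without ADP. Reactions were then started with ADP (0.7 mM) alongside PEP 0.15 mM, NADH 180 μM and LDH, in Tris pH 7.5/KCl/MgCl2/DTT/BSA buffer. A340 was followed at 25 °C and activation reported as AC50.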

Sequence of PKM2 (P14618 whole entry): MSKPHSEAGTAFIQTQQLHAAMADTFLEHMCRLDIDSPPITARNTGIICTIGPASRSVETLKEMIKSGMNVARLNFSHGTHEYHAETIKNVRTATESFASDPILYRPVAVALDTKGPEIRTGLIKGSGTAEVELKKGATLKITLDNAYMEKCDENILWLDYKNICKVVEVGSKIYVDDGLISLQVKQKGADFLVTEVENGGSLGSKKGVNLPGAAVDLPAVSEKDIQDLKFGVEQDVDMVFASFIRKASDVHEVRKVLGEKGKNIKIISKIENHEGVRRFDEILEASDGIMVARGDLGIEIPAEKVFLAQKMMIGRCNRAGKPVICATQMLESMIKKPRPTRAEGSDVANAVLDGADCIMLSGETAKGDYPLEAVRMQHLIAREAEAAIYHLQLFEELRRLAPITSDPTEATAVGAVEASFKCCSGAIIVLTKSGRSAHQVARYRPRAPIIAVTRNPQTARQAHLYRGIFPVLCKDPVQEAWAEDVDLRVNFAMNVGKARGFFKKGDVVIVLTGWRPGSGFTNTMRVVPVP

AC50 | SMILES
100 to 500 nM | O=C(c1ccc(NS(=O)(=O)c2cccc3cccnc23)cc1)N1CCN(C(=O)C2CCOCC2)CC1 [Compound 417, N-(4-(4-(tetrahydro-2H-pyran-4-carbonyl)piperazine-1-carbonyl)phenyl)quinoline-8-sulfonamide]
100 to 500 nM | O=C(c1ccc(NS(=O)(=O)c2cccc3cccnc23)cc1)N1CCN(C(=O)C2CCOC2)CC1 (stereo not drawn) [Compound 418, N-(4-(4-(tetrahydrofuran-3-carbonyl)piperazine-1-carbonyl)phenyl)quinoline-8-sulfonamide]
< 100 nM | O=C(c1ccc(NS(=O)(=O)c2cccc3cccnc23)cc1)N1CCN(CC2CCC2)CC1 [Compound 419, N-(4-(4-(cyclobutylmethyl)piperazine-1-carbonyl)phenyl)quinoline-8-sulfonamide]
100 to 500 nM | O=C(c1ccc(NS(=O)(=O)c2cccc3cccnc23)cc1F)N1CCN(CC2CC2)CC1 [Compound 424, N-(4-(4-(cyclopropylmethyl)piperazine-1-carbonyl)-3-fluorophenyl)quinoline-8-sulfonamide]
< 100 nM | O=C(c1ccc(NS(=O)(=O)c2cccc3cccnc23)cc1F)N1CCN(CC2CCOC2)CC1 (stereo not drawn) [Compound 425, N-(3-fluoro-4-(4-((tetrahydrofuran-3-yl)methyl)piperazine-1-carbonyl)phenyl)quinoline-8-sulfonamide]
< 100 nM | O=C(c1ccc(NS(=O)(=O)c2cccc3cccnc23)cc1Cl)N1CCN(CC2CC2)CC1 [Compound 427, N-(3-chloro-4-(4-(cyclopropylmethyl)piperazine-1-carbonyl)phenyl)quinoline-8-sulfonamide]
100 to 500 nM | O=C(c1ccc(NS(=O)(=O)c2cccc3cccnc23)cc1Cl)N1CCN(CC2CCCC2)CC1 [Compound 428, N-(3-chloro-4-(4-(cyclopentylmethyl)piperazine-1-carbonyl)phenyl)quinoline-8-sulfonamide]
100 to 500 nM | O=C(c1ccc(NS(=O)(=O)c2cccc3cccnc23)cc1Cl)N1CCN(CC2CCOC2)CC1 (stereo not drawn) [Compound 429, N-(3-chloro-4-(4-((tetrahydrofuran-3-yl)methyl)piperazine-1-carbonyl)phenyl)quinoline-8-sulfonamide]
< 100 nM | O=C(c1ccc(NS(=O)(=O)c2cccc3cccnc23)cc1)N1CCN(C(=O)C2CCCCO2)CC1 (stereo not drawn) [Compound 430, N-(4-(4-(tetrahydro-2H-pyran-2-carbonyl)piperazine-1-carbonyl)phenyl)quinoline-8-sulfonamide]
< 100 nM | O=C(c1ccc(NS(=O)(=O)c2cccc3cccnc23)cc1F)N1CCN(CC2CCOCC2)CC1 [Compound 436, N-(3-fluoro-4-(4-((tetrahydro-2H-pyran-4-yl)methyl)piperazine-1-carbonyl)phenyl)quinoline-8-sulfonamide]
< 100 nM | O=C(c1ccc(NS(=O)(=O)c2cccc3cccnc23)cc1F)N1CCN(CC2CCCO2)CC1 (stereo not drawn) [Compound 437, N-(3-fluoro-4-(4-((tetrahydrofuran-2-yl)methyl)piperazine-1-carbonyl)phenyl)quinoline-8-sulfonamide]
< 100 nM | CC(C)(C1CC1)N1CCN(C(=O)c2ccc(NS(=O)(=O)c3cccc4cccnc34)cc2)CC1 [Compound 438, N-(4-(4-(2-cyclopropylpropan-2-yl)piperazine-1-carbonyl)phenyl)quinoline-8-sulfonamide]
100 to 500 nM | O=C(c1ccc(NS(=O)(=O)c2cccc3cccnc23)cc1Cl)N1CCN(CC2CCOCC2)CC1 [Compound 440, N-(3-chloro-4-(4-((tetrahydro-2H-pyran-4-yl)methyl)piperazine-1-carbonyl)phenyl)quinoline-8-sulfonamide]
1000 to 20000 nM | O=C(c1ccc(NS(=O)(=O)c2cccc3cccnc23)cc1Cl)N1CCN(CC2CCCO2)CC1 (stereo not drawn) [Compound 441, N-(3-chloro-4-(4-((tetrahydrofuran-2-yl)methyl)piperazine-1-carbonyl)phenyl)quinoline-8-sulfonamide]
< 100 nM | CC(C1CC1)N1CCN(C(=O)c2ccc(NS(=O)(=O)c3cccc4cccnc34)cc2)CC1 (stereo not drawn) [Compound 442, N-(4-(4-(1-cyclopropylethyl)piperazine-1-carbonyl)phenyl)quinoline-8-sulfonamide]
500 to 1000 nM | O=C(c1ccc(NS(=O)(=O)c2cccc3cccnc23)cc1)N1CCN(C(=O)C2CCCO2)CC1 (stereo not drawn) [Compound 443, N-(4-(4-(tetrahydrofuran-2-carbonyl)piperazine-1-carbonyl)phenyl)quinoline-8-sulfonamide]
< 100 nM | O=C(c1ccc(NS(=O)(=O)c2cccc3cccnc23)cc1)N1CCN(C[C@H]2CCOC2)CC1 [Compound 444, (R)— and (S)—N-(4-(4-((tetrahydrofuran-3-yl)methyl)piperazine-1-carbonyl)phenyl)quinoline-8-sulfonamide]
< 100 nM | O=C(c1ccc(NS(=O)(=O)c2cccc3cccnc23)cc1)N1CCN(C[C@@H]2CCOC2)CC1 [Compound 445, (R)— and (S)—N-(4-(4-((tetrahydrofuran-3-yl)methyl)piperazine-1-carbonyl)phenyl)quinoline-8-sulfonamide]

The next lines start with the compound.

SMILES | AC50
O=C(c1ccc(NS(=O)(=O)c2cccc3cccnc23)cc1F)N1CCN(Cc2ccc(F)cc2)CC1 [Compound 420, N-(3-fluoro-4-(4-(4-fluorobenzyl)piperazine-1-carbonyl)phenyl)quinoline-8-sulfonamide] | < 100 nM
O=C(c1ccc(NS(=O)(=O)c2cccc3cccnc23)cc1F)N1CCN(Cc2cc(F)cc(F)c2)CC1 [Compound 421, N-(4-(4-(3,5-difluorobenzyl)piperazine-1-carbonyl)-3-fluorophenyl)quinoline-8-sulfonamide] | < 100 nM
O=C(c1ccc(NS(=O)(=O)c2cccc3cccnc23)cc1F)N1CCN(Cc2ccc(Cl)c(F)c2)CC1 [Compound 422, N-(4-(4-(4-chloro-3-fluorobenzyl)piperazine-1-carbonyl)-3-fluorophenyl)quinoline-8-sulfonamide] | 100 to 500 nM
O=C(c1ccc(NS(=O)(=O)c2cccc3cccnc23)cc1F)N1CCN(Cc2cc(F)c(F)c(F)c2)CC1 [Compound 423, N-(3-fluoro-4-(4-(3,4,5-trifluorobenzyl)piperazine-1-carbonyl)phenyl)quinoline-8-sulfonamide] | < 100 nM
O=C(c1ccc(NS(=O)(=O)c2cccc3cccnc23)cc1Cl)N1CCN(Cc2cc(F)cc(F)c2)CC1 [Compound 426, N-(3-chloro-4-(4-(3,5-difluorobenzyl)piperazine-1-carbonyl)phenyl)quinoline-8-sulfonamide] | < 100 nM
O=C(c1ccc(NS(=O)(=O)c2cccc3cccnc23)cc1Cl)N1CCN(Cc2ccc(F)cc2)CC1 [Compound 431, N-(3-chloro-4-(4-(4-fluorobenzyl)piperazine-1-carbonyl)phenyl)quinoline-8-sulfonamide] | < 100 nM
O=C(c1ccc(NS(=O)(=O)c2cccc3cccnc23)cc1Cl)N1CCN(Cc2ccc(Cl)c(F)c2)CC1 [Compound 432, N-(3-chloro-4-(4-(4-chloro-3-fluorobenzyl)piperazine-1-carbonyl)phenyl)quinoline-8-sulfonamide] | 100 to 500 nM
O=C(c1ccc(NS(=O)(=O)c2cccc3cccnc23)cc1Cl)N1CCN(Cc2cc(F)c(F)cc2F)CC1 [Compound 433, N-(3-chloro-4-(4-(2,4,5-trifluorobenzyl)piperazine-1-carbonyl)phenyl)quinoline-8-sulfonamide] | < 100 nM
O=C(c1ccc(NS(=O)(=O)c2cccc3cccnc23)cc1Cl)N1CCN(Cc2cc(F)c(F)c(F)c2)CC1 [Compound 434, N-(3-chloro-4-(4-(3,4,5-trifluorobenzyl)piperazine-1-carbonyl)phenyl)quinoline-8-sulfonamide] | < 100 nM
O=C(c1ccc(NS(=O)(=O)c2cccc3cccnc23)cc1F)N1CCN(CC2CCCCO2)CC1 (stereo not drawn) [Compound 435, N-(3-fluoro-4-(4-((tetrahydro-2H-pyran-2-yl)methyl)piperazine-1-carbonyl)phenyl)quinoline-8-sulfonamide] | 100 to 500 nM
O=C(c1ccc(NS(=O)(=O)c2cccc3cccnc23)cc1Cl)N1CCN(CC2CCCCO2)CC1 (stereo not drawn) [Compound 439, N-(3-chloro-4-(4-((tetrahydro-2H-pyran-2-yl)methyl)piperazine-1-carbonyl)phenyl)quinoline-8-sulfonamide] | 100 to 500 nM
CCOC(=O)N1CCN(C(=O)c2ccc(NS(=O)(=O)c3cccc4cccnc34)nc2)CC1 [Compound 446, Ethyl 4-(6-(quinoline-8-sulfonamido)nicotinoyl)piperazine-1-carboxylate] | 1000 to 20000 nM
CCOC(=O)N1CCN(C(=O)c2ccc(NS(=O)(=O)c3cccc4cccnc34)cn2)CC1 [Compound 447, Ethyl 4-(5-(quinoline-8-sulfonamido)picolinoyl)piperazine-1-carboxylate] | 1000 to 20000 nM
[2H]C(c1ccc(F)cc1)N1CCN(C(=O)c2ccc(NS(=O)(=O)c3cccc4cccnc34)cc2)CC1 (stereo not drawn) [Compound 448, N-(4-(4-(4-fluorobenzyl)piperazine-1-carbonyl)phenyl)quinoline-8-sulfonamide-(D)] | < 100 nM
[2H]C([2H])(c1cc(F)cc(F)c1)N1CCN(C(=O)c2ccc(NS(=O)(=O)c3cccc4cccnc34)cc2)CC1 [Compound 449, N-(4-(4-(3,5-difluorobenzyl)piperazine-1-carbonyl)phenyl)quinoline-8-sulfonamide-(D2)] | < 100 nM
[2H]C(c1cc(F)cc(F)c1)N1CCN(C(=O)c2ccc(NS(=O)(=O)c3cccc4cccnc34)cc2)CC1 (stereo not drawn) [Compound 450, N-(4-(4-(3,5-difluorobenzyl)piperazine-1-carbonyl)phenyl)quinoline-8-sulfonamide-(D)] | < 100 nM
O=C(c1cnc(NS(=O)(=O)c2cccc3cccnc23)cn1)N1CCN(CC2CC2)CC1 [Compound 451, N-(5-(4-(cyclopropylmethyl)piperazine-1-carbonyl)pyrazin-2-yl)quinoline-8-sulfonamide] | > 20000 nM
O=C(c1cnc(NS(=O)(=O)c2cccc3cccnc23)cn1)N1CCN(Cc2ccc(F)cc2)CC1 [Compound 452, N-(5-(4-(4-fluorobenzyl)piperazine-1-carbonyl)pyrazin-2-yl)quinoline-8-sulfonamide] | 1000 to 20000 nM
